Reference: patent US20060121449A1, “Method for selection of compounds which inhibit clonal cell growth and use thereof” (priority 2002, published 2006)
Entries after “also recorded” stand apart in the source; their conditions may differ.

Legend:
[1] = tested on: polyoma virus transformed BHK21/c13 cells, clone S100T1; assay: Clonal test: clonal growth of S100T1 cells in soft agar (Exp 2, 4, 6, 15, 16); assay type: cell-based, hamster
[2] = tested on: polyoma virus transformed BHK21/c13 cells, line S100T1; assay: Collocation inhibition test: clonal growth in sparsely and densely seeded areas of a cell density gradient of S100T1 cells in soft agar (Exp 13, 17, 19-26); settings: for Significance: Exp 17 day 14;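 on Clonal growth, H high density area of cell gradient, High: grades rise with clonal growth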;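 on Clonal growth, H high density area of cell gradient, Low: grades rise with clonal growth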;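 on Clonal growth, H high density area of cell gradient, Medium: grades rise with clonal growth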;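 on Clonal growth, L low density area of cell gradient, High: grades rise with clonal growth and minus or plus-minus means none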;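 on Clonal growth, L low density area of cell gradient, Low: grades rise with clonal growth and minus or plus-minus means none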;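 on Clonal growth, L low density area of cell gradient, Medium: grades rise with clonal growth and minus or plus-minus means none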;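 on all read-outs here: soft agar cultures in 24-well plates with a cell density gradient in the top layer, compounds applied from DMSO stocks, clonal growth scored in sparse versus dense areas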
Protocol: The cells should be grown in a top agar layer to avoid growth on the bottom surface. […] Both densely seeded and sparsely seeded areas were photographed.
Cells: The polyoma virus transformed offspring of BHK21/c13, S100T1, was grown on 75 cm^2 flasks on Eagles medium with 5% foetal calf serum. […] Foetal calf serum (0.7 ml) was added to each harvest. After low speed centrifugation the supernatant was discarded and the cells were dispersed in 1 ml FBS.
The concentration of ultra low gelling temperature agarose (Sigma) of the top agar layer with cells was also 0.8%. […] The addition of cells was performed at the same side of the wells in order to create similar cell density gradients. Finally the top layer agar was consolidated in the refrigerator.
After that it was incubated at 37 degrees in 5% CO2 atmosphere.
Agar cultures were prepared in Falcon 24 well tissue culture plate. Each well contained two agar layers of 0.3 ml.
Agar cultures were prepared in wells of Falcon 24 well tissue culture plate. Each contained two agar layers of 0.3 ml. […] The medium contained Eagles MEM and 10% foetal bovine serum (FBS).
The compounds were first solved in DMSO in 20 mM concentration and then diluted in medium. The top layer needed 60-90 minutes in the refrigerator for solidification before incubation in 37° C. with 5% CO2 atmosphere.
In this experiment the inhibitor was added to the bottom layer in order to get an easier way for making the cell density gradient. One side of the Falcon 24 well plate was elevated 12 degrees in the refrigerator for 60-90 minutes to solidify the bottom layer in an oblique position When then solidifying the cell containing top soft agar layer in horizontal position, the cell gradient constantly became good across the well. […] Another 90 minutes were spent in the refrigerator to consolidate the soft agar layer with cells in a horizontal position. Both layers contained 0.8% agarose, Eagles MEM and 10% FBS.
Tilting the plate 12 degrees when solidifying the bottom layer with the drug and casting the top layer with cells horizontally made a stable cell gradient.
The indicated compounds were added to soft agar cultures of the polyoma virus transformed cell line S100T1 of BHK21/c13 cells (Table 1). Agar cultures were prepared in wells of a Falcon 24 well tissue culture plate. The wells contained two agar layers of 0.3 ml. […] The bottom medium was identical, but without cells.
The compounds were first solved in DMSO in 20 mM concentration and then diluted in bottom medium. The agar layers needed 60-90 minutes in the refrigerator for consolidation before incubation at 37° C. in 5% CO2 atmosphere.

[3] = Exp 15, 32000 S100T1 cells/well
[4] = preliminary results, Exp 13-18, 21-26, high concentration
[5] = preliminary results, Exp 13-18, 21-26, low concentration
[6] = preliminary results, Exp 13-18, 21-26, medium concentration

COc1cc([C@@H]2c3cc4c(cc3[C@H](O)[C@H]3COC(=O)[C@H]23)OCO4)cc(OC)c1OC [Podophyllotoxin]
Effect on clonal growth at 0.03 μM [1, 3]: no significant inhibition
Effect on clonal growth at 0.3 μM [1, 3]: inhibited significantly
Concentration inhibiting clones significantly ([1]; Exp 16): More than 0.065 μM Podophyllotoxin inhibited clones
Colony inhibiting activity for dosage within a range that might be therapeutic ([1]; Exp 16, about 40000 S100T1 cells/well): the same activity possibly existed
Significance ([1]; Exp 16 day 14, Podophyllotoxin No 5 (lot 12K1562, solved in DMSO 8 days beforehand, stored frozen), 0.3 μM): probable
Growth ([1]; Exp 16 day 14, Podophyllotoxin No 5 (lot 12K1562, solved in DMSO 8 days beforehand, stored frozen), 0.3 μM in wells): (+))
Growth ([1]; Exp 16 day 14, Podophyllotoxin No 5 (lot 12K1562, solved in DMSO 8 days beforehand, stored frozen), 3 μM in wells): (+))
Significance ([1]; Exp 16 day 14, Podophyllotoxin No 5 (lot 12K1562, solved in DMSO 8 days beforehand, stored frozen), 3 μM, ” = as line above): ” and probable and prob-
Significance ([1]; Exp 16 day 14, Podophyllotoxin No 6 (lot 12K1562, solved in DMSO the same day), 0.03 μM): no
Significance ([1]; Exp 16 day 14, Podophyllotoxin No 6 (lot 12K1562, solved in DMSO the same day), 0.065 μM): possible
Growth ([1]; Exp 16 day 14, Podophyllotoxin No 6 (lot 12K1562, solved in DMSO the same day), 0.065 μM in wells): (+)
Significance ([1]; Exp 16 day 14, Podophyllotoxin No 7 (lot 12K1562, solved in DMSO the same day), 0.139 μM): probable
Growth ([1]; Exp 16 day 14, Podophyllotoxin No 7 (lot 12K1562, solved in DMSO the same day), 0.139 μM in wells): (+))
Growth ([1]; Exp 16 day 14, Podophyllotoxin No 7 (lot 12K1562, solved in DMSO the same day), 0.3 μM in wells): (+)
Significance ([1]; Exp 16 day 14, Podophyllotoxin No 7 (lot 12K1562, solved in DMSO the same day), 0.3 μM, ” = as line above): ” and possible
Significance ([1]; Exp 16 day 21, Podophyllotoxin No 5 (lot 12K1562, solved in DMSO 8 days beforehand, stored frozen), 0.3 μM): doubtful
Growth ([1]; Exp 16 day 21, Podophyllotoxin No 5 (lot 12K1562, solved in DMSO 8 days beforehand, stored frozen), 0.3 μM in wells): (+
Significance ([1]; Exp 16 day 21, Podophyllotoxin No 5 (lot 12K1562, solved in DMSO 8 days beforehand, stored frozen), 3 μM): probable
Growth ([1]; Exp 16 day 21, Podophyllotoxin No 5 (lot 12K1562, solved in DMSO 8 days beforehand, stored frozen), 3 μM in wells): (+))
Significance ([1]; Exp 16 day 21, Podophyllotoxin No 6 (lot 12K1562, solved in DMSO the same day), 0.03 μM): no
Growth ([1]; Exp 16 day 21, Podophyllotoxin No 6 (lot 12K1562, solved in DMSO the same day), 0.03 μM in wells): ++
Significance ([1]; Exp 16 day 21, Podophyllotoxin No 6 (lot 12K1562, solved in DMSO the same day), 0.065 μM): doubtful
Growth ([1]; Exp 16 day 21, Podophyllotoxin No 6 (lot 12K1562, solved in DMSO the same day), 0.065 μM in wells): (+
Significance ([1]; Exp 16 day 21, Podophyllotoxin No 7 (lot 12K1562, solved in DMSO the same day), 0.139 μM): doubtful
Growth ([1]; Exp 16 day 21, Podophyllotoxin No 7 (lot 12K1562, solved in DMSO the same day), 0.139 μM in wells): (+
Significance ([1]; Exp 16 day 21, Podophyllotoxin No 7 (lot 12K1562, solved in DMSO the same day), 0.3 μM): possible
Growth ([1]; Exp 16 day 21, Podophyllotoxin No 7 (lot 12K1562, solved in DMSO the same day), 0.3 μM in wells): (+)
Effect on growth in high- and low-density areas ([2]; Exp 17, 144000 S100T1 cells/well): growth inhibition of both high and low-density areas; also recorded: significant inhibition of growth in crowded areas
Clonal growth, results read on the day 14 ([2]; Exp 17, a: close to densely seeded cell areas, High: Colchicine 1, Podophyllotoxin 3, Etoposide 200, 4-OH—OPB 6.7 μM in wells, DMSO 29.2 μl): (+)
Clonal growth, results read on the day 14 ([2]; Exp 17, a: close to densely seeded cell areas, Low: Colchicine 0.1, Podophyllotoxin 0.3, Etoposide 20, 4-OH—OPB 0.67 μM in wells, DMSO 1.16 μl): (+
Clonal growth, results read on the day 14 ([2]; Exp 17, a: close to densely seeded cell areas, Medium: Colchicine 0.3, Podophyllotoxin 0.9, Etoposide 60, 4-OH—OPB 2 μM in wells, DMSO 6.8 μl): (+
Clonal growth, results read on the day 14 ([2]; Exp 17, b: sparsely seeded areas in the same agar culture, High: Colchicine 1, Podophyllotoxin 3, Etoposide 200, 4-OH—OPB 6.7 μM in wells, DMSO 29.2 μl): (+)
Clonal growth, results read on the day 14 ([2]; Exp 17, b: sparsely seeded areas in the same agar culture, Low: Colchicine 0.1, Podophyllotoxin 0.3, Etoposide 20, 4-OH—OPB 0.67 μM in wells, DMSO 1.16 μl): +
Clonal growth, results read on the day 14 ([2]; Exp 17, b: sparsely seeded areas in the same agar culture, Medium: Colchicine 0.3, Podophyllotoxin 0.9, Etoposide 60, 4-OH—OPB 2 μM in wells, DMSO 6.8 μl): +
Clones in sparsely seeded locations of the agar ([2]; Exp 17, compared with 4-OH-OPB): allow the growth of a few small clones in sparsely seeded locations of the agar; also recorded: to allow the growth of a few small clones in sparsely
Significance ([2]; a: close to densely seeded cell areas, High: Colchicine 1, Podophyllotoxin 3, Etoposide 200, 4-OH—OPB 6.7 μM in wells, DMSO 29.2 μl): Possible
Significance ([2]; a: close to densely seeded cell areas, Low: Colchicine 0.1, Podophyllotoxin 0.3, Etoposide 20, 4-OH—OPB 0.67 μM in wells, DMSO 1.16 μl): Doubtful
Significance ([2]; a: close to densely seeded cell areas, Medium: Colchicine 0.3, Podophyllotoxin 0.9, Etoposide 60, 4-OH—OPB 2 μM in wells, DMSO 6.8 μl): Doubtful
Significance ([2]; b: sparsely seeded areas, High: Colchicine 1, Podophyllotoxin 3, Etoposide 200, 4-OH—OPB 6.7 μM in wells, DMSO 29.2 μl): Possible
Significance ([2]; b: sparsely seeded areas, Low: Colchicine 0.1, Podophyllotoxin 0.3, Etoposide 20, 4-OH—OPB 0.67 μM in wells, DMSO 1.16 μl): No
Significance ([2]; b: sparsely seeded areas, Medium: Colchicine 0.3, Podophyllotoxin 0.9, Etoposide 60, 4-OH—OPB 2 μM in wells, DMSO 6.8 μl): No
Control of metastatic cells leaving tumour ([2]; ability of cells to leave a tumour, grow and infiltrate locally or grow in sparsely seeded areas, concluded from Exp 17): probably not
Clonal growth, H high density area of cell gradient, High [2, 4]: (+)
Clonal growth, L low density area of cell gradient, High [2, 4]: (+)
Clonal growth, H high density area of cell gradient, Low [2, 5]: (+
Clonal growth, L low density area of cell gradient, Low [2, 5]: +
Clonal growth, H high density area of cell gradient, Medium [2, 6]: (+
Clonal growth, L low density area of cell gradient, Medium [2, 6]: +
Effect on cell cloning in soft agar ([2]; preliminary results, in words): cytotoxic
Control of settlement of metastatic cells ([2]; single cells or very few cells spread to distant sites, concluded from Exp 17): partly
Toxicity for body or dense cell populations ([2]; supposed main advantages or disadvantages if used in cancer treatment, concluded from Exp 17): yes
Tolerating long duration of treatment ([2]; supposed, if used in cancer treatment): no
